Test results reported in EP2545917B1, “NOVEL EP4 AGONIST” (Kaken Pharmaceutical Co., Ltd., priority 2010, dated 2011).

Key:
[1] = tested on: dextran sodium sulfate-induced colitis; assay: Prophylactic effect on dextran sodium sulfate-induced colitis in rats; assay type: in vivo; settings: SD rats, 5.5 w/v% DSS, oral 1 mg/kg and 3 mg/kg once a day
Protocol: Prophylactic effect of compound F on colitis was also studied in rats. Male SD rats, 7 weeks old, body weight around 210 g - 240 g (Charles River) were purchased, acclimated for 1 week and used for the study. Except the normal group, the rats were allowed to freely drink a DSS (MP Biochemicals, M.W. 36,000-50,000, Lot No. 4556J) solution prepared to 5.5 w/v% for 8 days to induce colitis. Compound F at doses of 0.3, 1 and 3 mg/kg was orally administered once a day, daily, from one day before the start day of DSS drinking to one day before autopsy (day 7). To the control group was orally administered a solvent (1 vol% ethanol solution) at 5 mL/kg.
On day 8 from the start of DSS drinking, 1.25 w/v% Evans blue solution was administered at 0.2 mL/100 g from the tail vein. After 30 min, the rats were subjected to laparotomy under ether anesthesia and exsanguinated to death. Thereafter, the large intestine was dissected from just below the cecum to the anus, and the length was measured with a scale. […] The next day, the dry weight was measured, formamide (2 mL) was added, the dye was extracted at 50°C overnight, and the level thereof was measured at 620 nm. A standard curve was prepared using an Evans blue standard solution, and the amount (mg) of Evans blue in 1 g of the colonic tissue was calculated to estimate degree of colonic tissue injury. […]

[2] = tested on: dextran sodium sulfate-induced colitis; assay: Dextran sodium sulfate-induced colitis model in mice (C57BL/6); assay type: in vivo; settings: C57BL/6 mice, DSS, oral 0.3 and 1 mg/kg once a day
Protocol: Female C57BL/6 mice (6 weeks old, Japan SLC) were purchased, acclimated for 1 week and used for the study. Except the normal group, the mice were allowed to freely drink a 3 or 2 w/v% DSS (MP Biochemicals, Lot No. 5653H and 5464H, respectively) solution for 1 week to induce colitis. BPS at a dose of 0.3 mg/kg and compound F at doses of 0.3 and 1 mg/kg were orally administered once a day, daily, from the start day of DSS drinking (day 0) to one day before autopsy (day 9). To the control group was orally administered a solvent (1 vol% ethanol solution) at 10 mL/kg in the same manner. The consistency of the stool was graded from score 0 to 4, with normal (0), partly loose stool (1), loose stool (2) and diarrhea (4). The blood feces was also graded from score 0 to 4, with normal (0), partly blood feces (1), blood feces (2) and blood feces plus proctorrhagia (4). The sum of both grades was defined as the stool score (maximum 8). Furthermore, the length of the large intestine was measured in the same manner as in Example 23. Six to 10 animals were used for each group, and the results are shown in average ± standard deviation.

[3] = tested on: indomethacin-induced small intestinal injury; assay: Indomethacin-induced small intestinal injury model in rats; assay type: in vivo, SD rats
Protocol: Male SD rats, 7 weeks old (Charles River) were purchased, acclimated for 1 week and used for the study. The rats were grouped based on the body weight and subcutaneously ) administered with indomethacin (SIGMA, Lot No. 19F0018) at 15 mg/5 mL/kg to all groups to induce small intestinal injury. Compound F at doses of 0.01, 0.1 and 1 mg/kg was orally administered at a volume of 5 mL/kg 30 min before and 6 hr after the subcutaneous administration of indomethacin. To the control group was orally administered a solvent (1 vol% ethanol solution) at 5 mL/kg in the same manner. Eight animals were used for each group.
The rats were intravenously administered with 2 mL of 10 mg/mL Evans blue solution under ether anesthesia 23.5 hr after the indomethacin administration. After 30 min, the rats were bled to death from the abdominal aorta and caudal vena cava under ether anesthesia and the small intestine was isolated. The isolated small intestine was filled with an adequate amount (about 35 mL) of 2 vol% neutral formalin solution, and fixed for about 15 min. Thereafter, the total small intestine was incised along the mesenteric attachment site, and extended on a vinyl chloride board. The length and width of each ulcer were measured under a stereomicroscope, the area was calculated, and the sum thereof was taken as the total ulcer area.

[4] = tested on: blood pressure and heart rate; assay: Effect on blood pressure and heart rate in mice; assay type: in vivo, ICR mice; settings: intravenous 0.01 mg/5 mL/kg, isoflurane anesthesia
Protocol: Male ICR mice (5 weeks old, Japan SLC) were purchased, acclimated for 6 days and used for the test. The animals were treated and measured under isoflurane inhalation anesthesia (anesthesia introduced at 2.5%, maintained at 1.8-2.1%), while body temperature was kept at 37°C with a Heat Controller (ATC-402, Unique Medical Co., Ltd.). A catheter for administration of test compounds was inserted into the left femoral vein, and another catheter was inserted into the right femoral artery and connected to a pressure transducer to record each parameter of hemodynamics.
Compound F, the carboxylate form of compound F and BPS were intravenously administered at a dose of 0.01 mg/5 mL/kg, and the effect on the mean blood pressure and heart rate was evaluated with computer software for the analysis of hemodynamics (Fluclet, Dainippon Sumitomo Pharma Co., Ltd.). To the control group was intravenously administered a solvent (1.2% ethanol solution) at 5 mL/kg in the same manner. The results are expressed as a ratio of change in each parameter before and after the drug administration. Three to 6 animals were used for each group, and the results were expressed as average ± standard deviation.

**Q.** Cc1cccc([C@@H](C)[C@H](O)/C=C/[C@@H]2[C@@H]3[C@H](C[C@H]2O)O/C(=C\CCCc2nnn[nH]2)C3(F)F)c1 [Compound F, 4-[(Z)-(1S,5R,6R,7R)-6-[(1E,3R,4R)-3-hydroxy-4-(m-tolyl)-1-pentenyl]-7-hydroxy-2-oxa-4,4-difluoro-bicyclo[3.3.0]octan-3-ylidene]-1-(tetrazol-5-yl)butane] was tested. Which “effect on stool score, colonic tissue injury and shortening of the large intestine” value [1] did it give?
**A.** a suppressive tendency or significant suppressive effect on these events

**Q.** And the “effect on the onset of colitis (stool score, colon shortening)” value [2]?
**A.** superior prophylactic effect on the onset of colitis

**Q.** And the “effect on total ulcer area in the small intestine” value ([3]; oral 1 mg/kg 30 min before and 6 hr after indomethacin)?
**A.** completely reduced the area

**Q.** What about the “effect on total ulcer area in the small intestine” value ([3]; oral 0.01, 0.1 and 1 mg/kg 30 min before and 6 hr after indomethacin) of the same compound?
**A.** significantly reduced the ulcer area in a dose-dependent manner from a dose of 0.1 mg/kg administration

**Q.** What about the “effect on heart rate” value [4] of the same compound?
**A.** little effect on the heart rate

**Q.** And the “maximum decrease ratio of mean blood pressure” value [4]?
**A.** 16.2%
